Earlier results as cited in patent publication US7419990B2, “Piperidine derivatives as melanocortin-4 receptor agonists” (Merck & Co., Inc., priority 2003, dated 2008).

Assays:
[1] = tested on: psychogenic erectile dysfunction
erectile dysfunction = conditions: for duration of effect / onset of action: after an oral dose; for share of patients with adequate response: oral

Ac-Nle-c[Asp-His-DPhe-Arg-Trp-Lys]-NH2 [MT-II]
duration of action ([1]; in vivo): approximately 2.5 hours | time to onset of erection ([1]; in vivo): 10 to 20 min | response rate ([1]; injected intramuscularly or subcutaneously): 75% | absorption into the systemic circulation ([1]; oral route): not absorbed into the systemic circulation

CCCc1nn(C)c2c(=O)[nH]c(-c3cc(S(=O)(=O)N4CCN(C)CC4)ccc3OCC)nc12 [sildenafil]
duration of effect (erectile dysfunction): about 4 hours | onset of action (erectile dysfunction): 30 to 60 min | share of patients with adequate response (erectile dysfunction): about 70%

Cc1ccc(N(CC2=NCCN2)c2cccc(O)c2)cc1 [phentolamine]
duration of effect (erectile dysfunction): 2 h | onset of action (erectile dysfunction): 5 to 30 min | share of patients with adequate response (erectile dysfunction): 35-40%
